The nature of assay [1]: Inhibitory activity against 20-Hydroxy-5,8,11,14-eicosatetraenoic acid synthase from arachidonic acid in human renal microsome.
Assay [2] can be described thus: Inhibitory activity against 20-Hydroxy-5,8,11,14-eicosatetraenoic acid synthase from arachidonic acid in rat renal microsome.
Assay [3] in a line: Inhibitory activity against 20-Hydroxy-5,8,11,14-eicosatetraenoic acid synthase from arachidonic acid in human renal microsome.

For orientation: IC50 means the midpoint of a concentration-inhibition curve. A low value points to greater potency.

For `Cc1ccc(OCCCCCCCCCC(=O)O)c(C(=O)c2ccc(-n3ccnc3)cc2)c1`, it took 6740 nM to reach half-maximal inhibition in assay [1] (IC50).
In turn, `Cc1ccc(OCCCCCC(=O)O)c(C(=O)c2ccc(-n3ccnc3)cc2)c1` yielded an IC50 in assay [1] of 3290 nM. Against the preceding molecule, the IC50 is about 2-fold lower.
Turning to `Cc1ccc(OCCCCCCCC(=O)O)c(C(=O)c2ccc(-n3ccnc3)cc2)c1`, the midpoint of inhibition in assay [1], the IC50, lay at 4800 nM.
Consider `CCCCc1ccc(/N=C/NO)c(C)c1`, for which 35.2 nM corresponded to half-maximal inhibition in assay [2] (IC50). That is a double-digit nanomolar value.
Regarding `Cc1cc(C(=O)c2ccc(-n3ccnc3)cc2)ccc1OCCCCCCC(=O)O`, the IC50 in assay [1] stood at 22 nM.
With `Cc1cc(C(=O)c2ccc(-n3ccnc3)cc2)ccc1OCCCCCC(=O)O`, the IC50 in assay [1] stood at 7.9 nM. Compared with the last molecule, the IC50 is about 2.8-fold lower.
Molecule `Cc1ccc(OCCCCC(=O)O)c(C(=O)c2ccc(-n3ccnc3)cc2)c1` returned an IC50 in assay [1] of 8380 nM.
With `Cc1cc(C(=O)c2ccc(-n3ccnc3)cc2)ccc1OCCCCCCCC(=O)O`, in assay [1], the midpoint of inhibition, the IC50, lay at 44 nM.
As to `CS(=O)(=O)NC(=O)CCCCCCCCCC=C(Br)Br`, in assay [2], the IC50 turned out to be 2000 nM.
In assay [2], `O=C(c1ccccc1)c1ccc(-n2ccnc2)cc1` came in with an IC50 of 310 nM.
`Cc1cc(C(=O)c2ccc(-n3ccnc3)cc2)ccc1OCCCCCCCCCC(=O)O` displayed an IC50 in assay [1] of 73 nM. That is a double-digit nanomolar value.
On to `C#CCCCCCCCCCOS(=O)(=O)O`, for which, in assay [2], the IC50 is 7500 nM.
Regarding `Cc1cc(C(=O)c2ccc(-n3ccnc3)cc2)ccc1OCCCC(=O)O`, the IC50 in assay [3] was found to be 13 nM.
`Cc1ccc(OCCCCCCC(=O)O)c(C(=O)c2ccc(-n3ccnc3)cc2)c1` displayed an IC50 in assay [1] of 2460 nM.
Molecule `Cc1cc(C(=O)c2ccc(-n3ccnc3)cc2)ccc1OCCCCC(=O)O` displayed an IC50 in assay [1] of 12 nM.
The molecule `Cc1ccc(OCCCC(=O)O)c(C(=O)c2ccc(-n3ccnc3)cc2)c1` returned an IC50 in assay [1] of over 10000 nM.
`O=C(O)CCCCCCCCCC=C(Br)Br` gave an IC50 in assay [2] of 2000 nM. That is a single-digit micromolar value.
Consider `C#CCCCCCCCCCCCCCCCC(=O)O`, for which, in assay [2], the half-inhibitory concentration (IC50) was over 5000 nM.
